Read-outs that look alike come from different tables or passages of the source.
How the values were obtained:
[1] = system: p44/42 MAP kinase (Erk1 and Erk2); assay: Western blot of p44/42 MAP kinase phosphorylation in Swiss 3T3 cells; assay type: cell-based, rat; conditions: Example 6, 1 nM peptide, 3 minutes at 37° C., FIG. 3
Method: Swiss 3T3 cells, a […] fibroblast cell line, passage 6, were seeded 96 h before use in three 6-well plates. After 96 h, the cells in each well were confluent. The cultivation medium was Dulbecco's Modified Eagle Medium (DMEM) without sodium pyruvate, with pyridoxineHCl, 4500 mg/l glucose, 50 μg/ml gentamicin, and 10% foetal calf serum (FCS).
The cells were washed thoroughly with 37° C. starvation medium (cultivation medium as above without addition of FCS) and then kept in 1 ml 37° C. starvation medium for 2.5 h. 15 min. prior to the experiment, the buffer was changed to 37° C. Hanks' buffer (Gibco), and then kept in 37° C. […]
Protein content was determined in the collected supernatants using a BCA Protein Assay Reagent Kit (Pierce), including albumin standards. […]
The PVDF membranes were incubated with primary antibodies against (I) Phosphop44/42 MAP Kinase (Thr202/Tyr204) and (II) p44/42 MAP Kinase, respectively. […] The membranes were rinsed with TBS/T, and HRP activity on the membranes was detected with the SuperSignal® West Pico Chemiluminescent Substrate kit (Pierce).
Photographic films were exposed to the membranes, and bands of appropriate sizes on the resulting films were quantitated by densitometry, using a GS-710 Imaging Densitometer (Bio-Rad) and Quantity One software (Bio-Rad). […]

[2] = system: human renal tubular cells; assay: Intracellular Ca2+ concentration ([Ca2+]i) measurements as an assay of C-peptide activity; assay type: cell-based; conditions: for [Ca2+]i response after preincubation of the cells with pertussis toxin: pertussis toxin 1 μg/ml for 4 h at 37° C.
From the text: Based on studies showing a C-peptide effect on the intracellular Ca^2+ concentration ([Ca^2+]) (Ohtomo et al., supra, Kunt et al., supra), an assay has been developed, for C-peptide activity, based on measuring [Ca^2+]i changes in human renal tubular cells, namely a rise in [Ca^2+]i.
The following peptides were used, all prepared by solid-phase peptide synthesis and purchased from Sigma (Genosys (Cambridge, UK): human C-peptide, scrambled C-peptide (with the same residues, but randomly ordered des (27-31) C-peptide and C-terminal pentapeptide (EGSLQ).
Human renal tubular cells were obtained from the outer cortex of renal tissues obtained from non-diabetic patients undergoing elective nephrectomy for renal cell carcinomas. The collection of the tissue samples during suegery was approved by the Ethics Committee of the Karolinska Hospital. The cells were cultured in RPMI 1640 (Life Technologies, Grand Island, N.Y.) supplemented with 10% fetal calf serum, 2 mM L-glutamine, 10 mM HEPES, benzylpenicillin (100 U/ml), and streptbmycin (100 U/ml). Cells were grown to confluency on cover slips in a six-well plate and starved in serum-free medium for 4 hours before experiments.
Changes in [Ca^2+1]1 were measured on cells attached to cover slips. The cells were loaded with 2 μM of the fluorescent Ca^2+ indicator fura-2/AM at 37° C. for 30 minutes in a buffer containing 115 mM NaCl, 24 mM NaHCO3, 4.7 mM KCl, 1.26 mM CaCl2 1.2 mM KH2PO4, 1.2 mM MgSOZ 11.1 mM glucose, 20 mM HEPES, and 5 mg/ml bovine serum albumin, pH 7.4. Cover slips were mounted as the bottom of an open chamber placed on a thermostatically controlled stage of an inverted epifluorescence microscope (Zeiss, Axiovert 135). The microscope was connected to a SPEX fluorolog-2 system for dual-wave-length excitation fluorimetry. The emissions of the two excitation wavelengths of 340 and 380 nm were used to calculate the fluorescence ratio (F340/F380) reflecting changes in [Ca^2+]i, [17]. Treatments during recordings were made using a perifusion system attached to the chamber. Changes in [Ca^2+]i were measured using an attached CCD camera that allowed recording of individual cells in the cell clusters. The influence of pertussis toxin was studied by preincubation of the cells with the toxin at 1 μg/ml for 4 h at 37° C.
In these peptides each or all of Glu 3, Glu 11 and Glu 27 of human C-peptide were replaced by Ala. In addition, all of Glu 3, Glu 11 and Glu 27 were replaced by Gln. The peptides were tested for C-peptide activity by monitoring for rises in [Ca^2+]i as described in Example 1.

| Substance | capacity of phosphorylating p44/42 MAP kinase [1] | changes in [Ca2+]i (F340/F380 ratio) ([2]; human renal tubular cells loaded with fura-2/AM, peptide 5 and 10 nM) | [Ca2+]i response after preincubation of the cells with pertussis toxin [2] | changes in [Ca2+]i (F340/F380 ratio) [2] |
| --- | --- | --- | --- | --- |
| EAEALQAAQAELGGGPGAGSLQPLALEGSLQ (EAEALQAAQAELGGGPGAGSLQPLALEGSLQ) [Alanine-rich C-peptide] | did not decrease the biological activity |  |  |  |
| EAEDLQVGQVELGGGPGAGSLQPLALEGSLQ [human C-peptide] |  | effect of 5 nM human C-peptide may be seen | eliminated |  |
| EAEPLQPPQPELGGGPGAGSLQPLALEGSLQ [Proline-rich C-peptide] | decrease in phosphorylating capacity |  |  |  |
| EGSLQ [C-terminal pentapeptide] |  |  | eliminated | Results similar to those with human C-peptide |

From US20060234914A1, “Fragments of proinsulin c-peptide” (Creative Peptides Sweden AB, priority 2002, published 2006)
